Patent US11440907B1 (Merck Patent GmbH, priority 2018, dated 2022)

Experiments:
[1] = test system: β-catenin-TCF-mediated reporter transcription activity in Colo 205 cells; assay: Colo 205 reporter assay (TCF/LEF promoter-driven firefly luciferase); format: cell-based; details: Homo sapiens; Colo 205 TCF/LEF luciferase reporter, 5 hours after compound addition, 384 well; read-out: Colo205 IC50
Text: The compounds of the invention described herein were screened using the assay procedure for β-catenin-TCF-mediated reporter transcription activity described below.
Reporter cell lines were generated by stably transfecting cells of cancer cell lines (e.g., colon cancer) with a plasmid reporter construct (From SABiosciences, a QIAGEN company) that includes TCF/LEF promoter driving expression of the firefly luciferase gene. TCF/LEF reporter constructs were made in which TCF/LEF promoter, a promoter with optimal number of TCF/LEF binding sites designed by SABiosciences, was linked upstream of the firefly luciferase gene. This construct could also include a puromycin resistance gene as a selectable marker. This construct could also be used to stably transfect Colo 205 cells, a colon cancer cell line having a mutated APC gene that causes a constitutively active β-catenin. A control cell line was generated using another plasmid construct containing the luciferase gene under the control of a CMV basal promoter which is not activated by β-catenin.
Colo 205 Cultured cells with a stably transfected reporter construct were plated at approximately 10,000 cells per well into 384 well multi-well plates for twenty four hours. The testing compounds were then added to the wells in 2-fold serial dilutions using a twenty micromolar top concentration. A series of control wells for each cell type received only compound solvent. Five hours after the addition of compound, reporter activity for luciferase was assayed, by addition of the SteadyGlo luminescence reagent (Promega). The reporter luminescence activity was measured using Pherastar plate reader (BMG Labtech). Readings were normalized to DMSO only treated cells, and normalized activities were then used in the IC50 calculations. The Colo 205 reporter assay data are summarized in Table 3: A<0.3 μM; 0.3 μM≤B<1.0 μM; 1.0 μM≤C<5.0 μM; D≥5.0 μM.

[2] = test system: XBP1(u)-luciferase splicing reporter in HepG2 hepatoma cells; assay: HepG2 XBP1 reporter assay (XBP1(u)-Luc); format: cell-based; details: Homo sapiens, 6 hours after compound addition, Table 3, read-out: XBP1-luc HepG2 1 EC50

| SMILES | IC50 [1] | EC50 [2] |
| --- | --- | --- |
| Cc1cc(N2CCCOCC2c2ccc(NC(=O)[C@H]3CCOC3)cc2Cl)nc(N)n1 (mixture of isomers) [I-281, (3S)—N-(4-(4-(2-amino-6-methylpyrimidin-4-yl)-1,4-oxazepan-3-yl)-3-chlorophenyl)-tetrahydrofuran-3-carboxamide] | 300 to 1000 nM | 600 to 2000 nM |
| CCc1ccccc1C1CCCCCN1c1cc(C)nc(N)n1 (racemic) [I-45, (+/−)-4-(2-(2-ethylphenyl)azepan-1-yl)-6-methylpyrimidin-2-amine] | 300 to 1000 nM | 600 to 2000 nM |
| Cc1cc(N2CCCOC[C@@H]2c2ccc(N3CCN(C)CC3)cc2Cl)nc(N)n1 [I-275, (S)-4-[3-[2-chloro-4-(4-methylpiperazin-1-yl)phenyl]-1,4-oxazepan-4-yl]-6-methyl-pyrimidin-2-amine] | 300 to 1000 nM | < 600 nM |
| Cc1cc(N2CCCOCC2c2cc(N3CC[C@H](O)C3)ccc2Cl)nc(N)n1 (stereo partly drawn) [I-234, (3S)-1-[3-[4-(2-amino-6-methyl-pyrimidin-4-yl)-1,4-oxazepan-3-yl]-4-chloro-phenyl]pyrrolidin-3-ol] | 300 to 1000 nM | < 600 nM |
| COc1ccccc1[C@H]1CCCCCN1c1cc(C)nc(N)n1 (single isomer, unassigned) [I-11] | < 300 nM | 2000 to 5000 nM |
| Cc1cc(N2CCCOCC2c2cc3c(cc2Cl)SCCN3)nc(N)n1 (racemic) [I-274, 4-[3-(7-chloro-3,4-dihydro-2H-1,4-benzothiazin-6-yl)-1,4-oxazepan-4-yl]-6-methyl-pyrimidin-2-amine] | 300 to 1000 nM | ≥ 5000 nM |
| COc1ccc(OC)c(C2CCCCCN2c2cc(C)nc(N)n2)c1 (racemic) [I-25, (+/−)-4-(2-(2,5-dimethoxyphenyl)azepan-1-yl)-6-methylpyrimidin-2-amine] | < 300 nM | 600 to 2000 nM |
| Cc1cc(N2CCCOCC2c2cc(NC(=O)CC(C)(C)O)ccc2Cl)nc(N)n1 (racemic) [I-251, (+/−)-N-[3-[4-(2-amino-6-methyl-pyrimidin-4-yl)-1,4-oxazepan-3-yl]-4-chloro-phenyl]-3-hydroxy-3-methyl-butanamide] | < 300 nM | 600 to 2000 nM |
| Cc1cc(N2CCCOCC2c2ccc(N3CCN(C(=O)C4CC4)CC3)cc2Cl)nc(N)n1 (racemic) [I-273, (+/−)-[4-[4-[4-(2-amino-6-methyl-pyrimidin-4-yl)-1,4-oxazepan-3-yl]-3-chloro-phenyl]piperazin-1-yl]-cyclopropyl-methanone] | < 300 nM | < 600 nM |
| Cc1cc(N2CCCOC[C@@H]2c2ccc(N3CC4(CCO4)C3)cc2Cl)nc(N)n1 [I-260, 4-[(3S)-3-[2-chloro-4-(1-oxa-6-azaspiro[3.3]heptan-6-yl)phenyl]-1,4-oxazepan-4-yl]-6-methyl-pyrimidin-2-amine] | < 300 nM | < 600 nM |
| Cc1cc(N2CCCCCC2c2ccccc2C)nc(N)n1 (racemic) [I-6, (+/−)-4-methyl-6-(2-(2-(methyl)phenyl)azepan-1-yl)pyrimidin-2-amine] | 300 to 1000 nM | 2000 to 5000 nM |
| Cc1cc(N2CCCOCC2c2ccc(NC(=O)[C@@H]3CCOC3)cc2Cl)nc(N)n1 (mixture of isomers) [I-280, (3R)—N-(4-(4-(2-amino-6-methylpyrimidin-4-yl)-1,4-oxazepan-yl)-3-chlorophenyl)-tetrahydrofuran-3-carboxamide] | 300 to 1000 nM | < 600 nM |
| COc1c(F)cccc1C1CCCCCN1c1cc(C)nc(N)n1 (stereo not drawn) [I-287] | 300 to 1000 nM | ≥ 5000 nM |
| Cc1cc(N2CCCOC[C@@H]2c2cc(NC(=O)CCO)ccc2Cl)nc(N)n1 (racemic) [I-174, (+/−)-N-[3-[4-(2-amino-6-methyl-pyrimidin-4-yl)-1,4-oxazepan-3-yl]-4-chloro-phenyl]-3-hydroxy-propanamide] | 300 to 1000 nM | 600 to 2000 nM |
| Cc1cc(N2CCCOC[C@@H]2c2cc(NC3COC3)ccc2Cl)nc(N)n1 [I-258, 4-[(3S)-3-[2-chloro-5-(oxetan-3-ylamino)phenyl]-1,4-oxazepan-4-yl]-6-methyl-pyrimidin-2-amine] | < 300 nM | < 600 nM |

Now from value to compound:

| IC50 [1] | EC50 [2] | SMILES |
| --- | --- | --- |
| 300 to 1000 nM | < 600 nM | Cc1cc(N2CCCOCC2c2ccc(C3CCC(=O)N3C)cc2Cl)nc(N)n1 (racemic) [I-239, (+/−)-5-(4-(4-(2-amino-6-methylpyrimidin-4-yl)-1,4-oxazepan-3-yl)-3-chlorophenyl)-1-methylpyrrolidin-2-one] |
| < 300 nM | < 600 nM | Cc1cc(N2CCCOC[C@@H]2c2ccc(N3CCC(C)(O)CC3)cc2Cl)nc(N)n1 [I-242, (5)-1-(4-(4-(2-amino-6-methylpyrimidin-4-yl)-1,4-oxazepan-3-yl)-3-chlorophenyl)-4-methylpiperidin-4-ol] |
| 300 to 1000 nM | < 600 nM | Cc1cc(N2CCCOC[C@@H]2c2cc(Br)ccc2Cl)nc(N)n1 [I-245, 4-[(3S)-3-(5-bromo-2-chloro-phenyl)-1,4-oxazepan-4-yl]-6-methyl-pyrimidin-2-amine] |
| < 300 nM | < 600 nM | Cc1cc(N2CCCOCC2c2ccc(OC[C@@H](C)O)cc2Cl)nc(N)n1 (mixture of isomers) [I-232, (+/−)-1-(4-(4-(2-amino-6-methylpyrimidin-4-yl)-1,4-oxazepan-3-yl)-3-chlorophenoxy)propan-2-ol] |
| < 300 nM | 600 to 2000 nM | Cc1cc(N2CCCOCC2c2ccc(C3COC3)cc2Cl)nc(N)n1 (racemic) [I-255, (+/−)-4-[3-[2-chloro-4-(oxetan-3-yl)phenyl]-1,4-oxazepan-4-yl]-6-methyl-pyrimidin-2-amine] |
| 300 to 1000 nM | < 600 nM | Cc1cc(N2CCCOCC2c2ccc(OCCC(C)(C)O)cc2Cl)nc(N)n1 (racemic) [I-230, (+/−)-4-[4-[4-(2-amino-6-methyl-pyrimidin-4-yl)-1,4-oxazepan-3-yl]-3-chloro-phenoxy]-2-methyl-butan-2-ol] |
| < 300 nM | < 600 nM | CC(=O)N1CC(Nc2ccc([C@H]3COCCCN3c3cc(C)nc(N)n3)c(Cl)c2)C1 [I-262, (S)-1-(3-((4-(4-(2-amino-6-methylpyrimidin-4-yl)-1,4-oxazepan-3-yl)-3-chlorophenyl)amino)azetidin-1-yl)ethan-1-one] |
| < 300 nM | < 600 nM | Cc1cc(N2CCCOC[C@@H]2c2ccc(N3CC(C)(O)C3)cc2Cl)nc(N)n1 [I-261, (S)-1-(4-(4-(2-amino-6-methylpyrimidin-4-yl)-1,4-oxazepan-3-yl)-3-chlorophenyl)-3-methylazetidin-3-ol] |
| 300 to 1000 nM | 600 to 2000 nM | Cc1cc(N2CCCOCC2c2ccc(N3CCCC3)cc2Cl)nc(N)n1 (racemic) [I-227, (+/−)-4-[3-(2-chloro-4-pyrrolidin-1-yl-phenyl)-1,4-oxazepan-4-yl]-6-methyl-pyrimidin-2-amine] |
| < 300 nM | < 600 nM | Cc1cc(N2CCCOC[C@@H]2c2ccc(NCC(C)(C)O)cc2Cl)nc(N)n1 [I-247, 1-[4-[(3S)-4-(2-amino-6-methyl-pyrimidin-4-yl)-1,4-oxazepan-3-yl]-3-chloro-anilino]-2-methyl-propan-2-ol] |
| 300 to 1000 nM | 600 to 2000 nM | Cc1cc(N2CCCOCC2c2ccc(N3CCN(C)CC3)cc2Cl)nc(N)n1 (racemic) [I-225, (+/−)-4-[3-[2-chloro-4-(4-methylpiperazin-1-yl)phenyl]-1,4-oxazepan-4-yl]-6-methyl-pyrimidin-2-amine] |
| < 300 nM | < 600 nM | Cc1cc(N2CCCOCC2c2cc(NCCO)ccc2Cl)nc(N)n1 (single isomer, unassigned) [I-237] |
| < 300 nM | < 600 nM | Cc1cc(N2CCCOCC2c2ccc(C3CCOC3)cc2Cl)nc(N)n1 (racemic) [I-238, (+/−)-4-(3-(2-chloro-4-(tetrahydrofuran-3-yl)phenyl)-1,4-oxazepan-4-yl)-6-methylpyrimidin-2-amine] |
| < 300 nM | < 600 nM | Cc1cc(N2CCCOC[C@@H]2c2cc(NCCO)ccc2Cl)nc(N)n1 (single isomer, unassigned) [I-253] |
| < 300 nM | < 600 nM | Cc1cc(N2CCCOC[C@@H]2c2ccc(NC3CN(C)C3)cc2Cl)nc(N)n1 [I-246, 4-[(3S)-3-[2-chloro-4-[(1-methylazetidin-3-yl)amino]phenyl]-1,4-oxazepan-4-yl]-6-methyl-pyrimidin-2-amine] |
| < 300 nM | < 600 nM | CC(=O)N(C)Cc1ccc(C2COCCCN2c2cc(C)nc(N)n2)c(Cl)c1 (racemic) [I-254, (+/−)-N-(4-(4-(2-amino-6-methylpyrimidin-4-yl)-1,4-oxazepan-3-yl)-3-chlorobenzyl)-N-methylacetamide] |
| < 300 nM | < 600 nM | Cc1cc(N2CCCOCC2c2ccc(NC(=O)C(C)(C)O)cc2Cl)nc(N)n1 (stereo not drawn) [I-308] |
| 300 to 1000 nM | < 600 nM | Cc1cc(N2CCCOC[C@@H]2c2ccc(NC3CNC3)cc2Cl)nc(N)n1 [I-257, 4-[(3S)-3-[4-(azetidin-3-ylamino)-2-chloro-phenyl]-1,4-oxazepan-4-yl]-6-methyl-pyrimidin-2-amine] |
